Source: patent US6586368B1, “Condensed heterocylic compounds and herbicides containing them” (Sumitomo Chemical Company, Limited, priority 1998, dated 2003)

Tests used:
Assay type in all cases: in vivo
[1] = test system: velvetleaf (Abutilon theophrasti); assay: Test Example 3: soil surface treatment, velvetleaf seeded in pots, herbicidal activity; conditions: emulsifiable concentrate sprayed over the surface of the soil after seeding, dosage of 2000 g/ha, 1000 liters per hectare, examined after 9 days in greenhouse
[2] = test system: barnyardgrass (Echinochloa oryzicola); assay: Test Example 4: flooded paddy field treatment of barnyardgrass in pots, herbicidal activity; conditions: emulsifiable concentrate applied on the water surface of flooded pots, dosage of 1000 g/ha, 50 liters per are, plants 12 days after seeding, examined after 9 days in greenhouse
[3] = test system: velvetleaf (Abutilon theophrasti); assay: Test Example 1: foliage treatment of velvetleaf in pots, herbicidal activity; conditions: emulsifiable concentrate sprayed over the foliage, dosage of 2000 g/ha, 1000 liters per hectare, plants 14 days after seeding, examined after 8 days in greenhouse
[4] = test system: velvetleaf (Abutilon theophrasti); assay: Test Example 2: foliage treatment of velvetleaf in pots, herbicidal activity; conditions: emulsifiable concentrate sprayed over the foliage, dosage of 8000 g/ha, 1000 liters per hectare, plants 14 days after seeding, examined after 5 days in greenhouse
Method: Cylindrical plastic pots of 10 cm in diameter and 10 cm in depth were filled with soil, seeded with velvetleaf (Abutilon theophrasti), and kept in a greenhouse for 14 days. After that, according to Formulation Example 2, compound 2-2001 or 3-2001 was formulated into an emulsifiable concentrate, which was diluted in a prescribed amount with water containing a spreading agent and then uniformly sprayed over the foliage of the plants with a sprayer at a ratio of 1000 liters per hectare. The pots were further kept in the greenhouse for 5 days and examined for herbicidal activity.

In the case of `CCOC(=O)C(Cl)Cc1ccc2occ(-n3c(=O)cc(C(F)(F)F)n(C)c3=O)c2c1` (centres unmarked) [Compound 1-407], the “herbicidal activity: germination of velvetleaf” value (shortened to “herbicidal activity: germination”) [1] is reported as “completely inhibited the germination”, the “herbicidal activity: growth of barnyardgrass” value [2] is reported as “completely inhibited the growth” and the “herbicidal activity: growth of velvetleaf” value [3] is reported as “completely inhibited the growth”.
For `Cn1c(C(F)(F)F)cc(=O)n(-c2coc3cc([N+](=O)[O-])c(F)cc23)c1=O` [Compound 1-431], the “herbicidal activity: germination” value [1] was “completely inhibited the germination”, the “herbicidal activity: growth of barnyardgrass” value [2] was “completely inhibited the growth” and the “herbicidal activity: growth of velvetleaf” value [3] was “completely inhibited the growth”.
For `Cn1c(C(F)(F)F)cc(=O)n(-c2coc3cc(Cl)ccc23)c1=O` [Compound 1-861], the “herbicidal activity: germination” value [1] was “completely inhibited the germination”, the “herbicidal activity: growth of barnyardgrass” value [2] was “completely inhibited the growth” and the “herbicidal activity: growth of velvetleaf” value [3] was “completely inhibited the growth”.
With `O=C1C2=C(CCCC2)C(=O)N1n1ccc2ccccc21` [Compound 2-2001] the “herbicidal activity: kill of velvetleaf” value [4] was “completely killed”.
`O=c1cc(C(F)(F)F)ncn1-n1ccc2ccccc21` [Compound 3-2001] was tested, and the “herbicidal activity: kill of velvetleaf” value [4] was “completely killed”.
